Experimental findings from patent publication EP4793271A1, “NEUROPROTECTIVE AGENT” (National Center of Neurology and Psychiatry, priority 2023, dated 2025) are described below.

Experiment [1] addresses T1, nicotinamide phosphoribosyl transferase (NAMPT) (Homo sapiens, UniProt P43490).
T1 construct: purchased Medical & Biological Laboratories Co., Ltd. (MBL)
The experiment is described as follows: NAMPT activity measurement (NMN fluorescence detection). As to conditions: NAMPT recombinant protein, 10 µM Nam; for IC50: read-out: Evaluation on NAMPT inhibitory. It is filed as biochemical. In a few lines:
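Recombinant NAMPT reacted with 10 µM Nam, 0.5 µM PRPP, 2 µM ATP in Tris pH 7.4 buffer with MgCl2, DTT, BSA; product NMN quantified by fluorescence (ex 421/em 480 nm) after derivatization with 2-acetylbenzofuran. Compounds at 3 nM–10 µM; control-normalized signal used for IC50.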

Experiment [2] has as its system primary cultured cells of mouse fetus-derived dorsal root ganglia (DRGs). The experiment in a line: Suppression of axonal degeneration after axotomy in DRG explant culture. It is filed as cell-based. The following applies: minimum concentration at which axonal degeneration was suppressed (DI 0.3 or less), 24 hours after axotomy; for minimal effective concentration: Mus musculus, read-out: Evaluation on protection against degeneration. In a few lines: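 Embryonic ICR mouse DRG explants were cultured 7–8 days in nicotinamide-free neuronal medium with NGF, then axotomized by removing the cell bodies. Compound (100 pM–10 µM final, 0.1% DMSO) was added within 30 min, and neurites were imaged 24 h later. The result is the lowest concentration giving degeneration index ≤0.3.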

Experiment [3] addresses T2, hSARM1 (Homo sapiens, UniProt Q6SZW1).
T2 sequence (Q6SZW1 28-724): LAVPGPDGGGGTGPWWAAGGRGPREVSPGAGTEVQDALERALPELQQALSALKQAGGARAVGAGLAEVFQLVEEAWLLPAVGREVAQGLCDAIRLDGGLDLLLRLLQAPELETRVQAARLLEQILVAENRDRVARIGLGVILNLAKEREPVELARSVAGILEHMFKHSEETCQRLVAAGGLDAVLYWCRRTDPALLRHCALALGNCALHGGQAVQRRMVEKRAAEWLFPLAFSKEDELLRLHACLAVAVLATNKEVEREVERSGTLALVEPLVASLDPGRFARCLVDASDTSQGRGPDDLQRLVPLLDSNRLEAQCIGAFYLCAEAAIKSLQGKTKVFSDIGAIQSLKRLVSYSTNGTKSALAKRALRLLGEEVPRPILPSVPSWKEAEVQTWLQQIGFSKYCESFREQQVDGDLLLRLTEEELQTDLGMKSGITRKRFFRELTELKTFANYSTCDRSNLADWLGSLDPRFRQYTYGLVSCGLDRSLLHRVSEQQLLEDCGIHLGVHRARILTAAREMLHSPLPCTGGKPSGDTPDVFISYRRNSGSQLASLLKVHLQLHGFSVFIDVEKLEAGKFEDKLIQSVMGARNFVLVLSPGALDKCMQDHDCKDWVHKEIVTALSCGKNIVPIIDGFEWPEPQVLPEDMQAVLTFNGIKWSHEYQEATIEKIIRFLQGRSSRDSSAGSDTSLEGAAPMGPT
The experiment is described as follows: Human SARM1 activity measurement in HEK293 cells transiently transfected with ΔN-hSARM1 (PC6 fluorescent probe). It is filed as cell-based. As to conditions: inhibition rate; compound 30 µM; PC6 50 µM; HEK293 cells expressing ΔN-hSARM1; approximately 48 hours from transfection; read-out: Evaluation on hSARM1 inhibitory. Also noted: expressed in transfected cells; host or cells: HEK293, pcDNA3 expression vector. In a few lines:
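HEK293 cells in nicotinamide-free DMEM with 5 μM nicotinamide, transiently transfected with mitochondrial-targeting-deleted ΔN-hSARM1; PC6 base-exchange fluorescent probe (50 μM) plus compound (30 μM) added ~8 h post-transfection. Fluorescence (ex 405/em 525 nm) read ~48 h from transfection; inhibition % versus transfected DMSO control, untransfected background subtracted.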

T1 sequence (P43490 whole entry, species assumed): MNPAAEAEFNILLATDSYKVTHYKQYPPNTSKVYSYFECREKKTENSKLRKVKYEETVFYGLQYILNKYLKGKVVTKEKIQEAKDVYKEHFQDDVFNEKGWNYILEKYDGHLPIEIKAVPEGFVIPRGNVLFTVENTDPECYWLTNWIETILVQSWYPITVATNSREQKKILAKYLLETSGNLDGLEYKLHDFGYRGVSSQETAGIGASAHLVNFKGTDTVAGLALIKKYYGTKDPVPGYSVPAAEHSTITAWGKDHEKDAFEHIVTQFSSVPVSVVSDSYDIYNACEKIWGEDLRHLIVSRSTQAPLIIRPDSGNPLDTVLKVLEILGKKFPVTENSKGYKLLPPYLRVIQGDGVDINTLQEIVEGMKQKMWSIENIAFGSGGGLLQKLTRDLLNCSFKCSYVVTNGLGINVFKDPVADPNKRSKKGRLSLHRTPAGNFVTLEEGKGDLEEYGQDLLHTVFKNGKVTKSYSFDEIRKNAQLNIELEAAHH

As for `O=C(/C=C/c1cccnc1)NCCOCCOc1ccccc1` [compound 17], the IC50 in experiment [1] was at least 100 nM. Also, the minimal effective concentration in experiment [2] is at most 0.01 µM. For the same compound, the inhibition at 30 µM in experiment [3] was over 75%.
For `COc1cccc(OCCCNC(=O)/C=C/c2cccnc2)c1` [compound 18], in that order: at least 100 nM, at most 0.01 µM and over 75%.
Taken in the same sequence, the figures for `COc1cccc(OCCNC(=O)/C=C/c2cccnc2)c1` [compound 19] were at least 100 nM, at most 0.01 µM and over 75%.
Turning to `CC(=O)NCc1ccc(OCCCNC(=O)c2cccnc2)cc1` [compound 20], the “Evaluation on NAMPT inhibitory” value in experiment [1] was “○”. Moreover, the minimal effective concentration in experiment [2] is 0.01 to 0.1 µM. In experiment [3], the inhibition at 30 µM was over 75%.
For `CC(=O)NCc1ccc(OCCOCCNC(=O)c2cccnc2)cc1` [compound 21], in that order: “○”, at most 0.01 µM and over 50%.
`CC(=O)NCc1ccc(OCCOCCNC(=O)/C=C/c2cccnc2)cc1` [compound 22]: in experiment [1], the IC50 is at least 100 nM. Besides, in experiment [2], the minimal effective concentration is at most 0.01 µM. Moreover, in experiment [3], the inhibition at 30 µM was over 75%.
Consider `COCOc1cccc(OCCCNC(=O)c2cccnc2)c1` [compound 25], for which the “Evaluation on NAMPT inhibitory” value in experiment [1] was “○”. Besides, the “Evaluation on protection against degeneration” value (from here on “Evaluation on protection”) in experiment [2] is “B (0.01 µM < B ≤ 0.1 µM)”. Further, the inhibition at 30 µM in experiment [3] is over 75%.
For `O=C(NCCOCCOc1cccc(O)c1)c1cccnc1` [compound 27], the IC50 in experiment [1] is at least 100 nM. For the same compound, in experiment [2], the minimal effective concentration fell in the range of 0.01 to 0.1 µM. The inhibition at 30 µM in experiment [3] was over 75%.
`COc1cccc(OCCOCCNC(=O)/C=C/c2cccnc2)c1` [compound 28]: the IC50 in experiment [1] is at least 100 nM. In addition, the minimal effective concentration in experiment [2] is at most 0.01 µM. Moreover, in experiment [3], the inhibition at 30 µM is over 75%.
As for `COCOc1cccc(OCCOCCNC(=O)c2cccnc2)c1` [compound 30], the “Evaluation on NAMPT inhibitory” value in experiment [1] was “○”. For the same compound, the minimal effective concentration in experiment [2] lay in the range of 0.01 to 0.1 µM. Further, the inhibition at 30 µM in experiment [3] was over 50%.
Consider `COC(=O)c1ccc(OCCOCCNC(=O)/C=C/c2cccnc2)cc1` [compound 31], for which the IC50 in experiment [1] is at least 100 nM. In addition, the minimal effective concentration in experiment [2] is at most 0.01 µM. Further, the inhibition at 30 µM in experiment [3] is over 75%.
Turning to `COC(=O)c1ccc(OCCOCCNC(=O)c2cccnc2)cc1` [compound 32], the “Evaluation on NAMPT inhibitory” value in experiment [1] was “○”. Besides, the minimal effective concentration in experiment [2] is at most 0.01 µM. In addition, the inhibition at 30 µM in experiment [3] is over 50%.
For `O=C(NCCOCCOCCNC(=O)c1cccnc1)c1cccnc1` [compound 34], in that order: “○”, at most 0.01 µM and over 75%.
Taken in the same sequence, the figures for `O=C(/C=C/c1cccnc1)NCCOCCNC(=O)/C=C/c1cccnc1` [compound 37] were “○”, 0.01 to 0.1 µM and over 75%.
For `O=C(/C=C/c1cccnc1)NCCCNC(=O)/C=C/c1cccnc1` [compound 39], in that order: “○”, at most 0.01 µM and over 75%.
For `O=C(CNC(=O)c1cccnc1)NCCNC(=O)CNC(=O)c1cccnc1` [compound 40], the “Evaluation on NAMPT inhibitory” value in experiment [1] is listed as “○”. For the same compound, the minimal effective concentration in experiment [2] lay in the range of 0.1 to 1 µM. For the same compound, the inhibition at 30 µM in experiment [3] is over 10%.
For `O=C(CNC(=O)c1cccnc1)NCCCCCCNC(=O)CNC(=O)c1cccnc1` [compound 41], in that order: “○”, at most 0.01 µM and over 75%.
With `C/C(=C\C(=O)NCCOCCNC(=O)/C=C(\C)c1cccnc1)c1cccnc1` [compound 43], in experiment [1], the IC50 was at least 100 nM. Besides, in experiment [2], the minimal effective concentration was at most 0.01 µM. Also, the inhibition at 30 µM in experiment [3] is over 75%.
For `O=C(NCCCCCCNC(=O)c1cncc(O)c1)c1cccnc1` [compound 57], in that order: at least 100 nM, 0.01 to 0.1 µM and over 75%.
`O=C(/C=C/c1cccnc1)Nc1cccc(NC(=O)/C=C/c2cccnc2)n1` [compound 59]: the “Evaluation on NAMPT inhibitory” value in experiment [1] is “○”. Moreover, the “Evaluation on protection” value in experiment [2] is recorded as “A (A ≤ 0.01 µM)”. In addition, the inhibition at 30 µM in experiment [3] is over 25%.
Consider `O=C(/C=C/c1cccnc1)NCc1cccc(NC(=O)/C=C/c2cccnc2)c1` [compound 61], for which the IC50 in experiment [1] is at least 100 nM. Further, the minimal effective concentration in experiment [2] is at most 0.01 µM. Moreover, the inhibition at 30 µM in experiment [3] was over 75%.
In the case of `O=C(NCCCNS(=O)(=O)c1ccccc1[N+](=O)[O-])c1cccnc1` [compound 63], in experiment [1], the “Evaluation on NAMPT inhibitory” value is listed as “○”. Also, the minimal effective concentration in experiment [2] fell in the range of 0.1 to 1 µM. Moreover, the inhibition at 30 µM in experiment [3] was over 10%.
`O=C(/C=C/c1cccnc1)Nc1ccc(CNC(=O)c2ccccc2)cc1` [compound 64]: in experiment [1], the IC50 is at least 100 nM. Further, the minimal effective concentration in experiment [2] was at most 0.01 µM. For the same compound, the inhibition at 30 µM in experiment [3] was over 75%.
Take `O=C(CCc1ccccc1)NCc1ccc(CNC(=O)c2cccnc2)cc1` [compound 65]: the “Evaluation on NAMPT inhibitory” value in experiment [1] is recorded as “○”. Also, the minimal effective concentration in experiment [2] is at most 0.01 µM. The inhibition at 30 µM in experiment [3] is over 75%.
As for `C#CCOc1cncc(C(=O)Nc2ccc(CNC(=O)c3cccnc3)cc2)c1` [compound 67], the IC50 in experiment [1] was at least 100 nM. In experiment [2], the minimal effective concentration was at most 0.01 µM. Further, the inhibition at 30 µM in experiment [3] was over 75%.
Consider `CC(C)(C)OC(=O)NCCCOCCOCCCNC(=O)c1cccnc1` [compound 70], for which the “Evaluation on NAMPT inhibitory” value in experiment [1] was “○”. Also, the minimal effective concentration in experiment [2] is at most 0.01 µM. For the same compound, the inhibition at 30 µM in experiment [3] is over 50%.
As for `CC(C)(C)OC(=O)NCCOCCOCCNC(=O)c1cccnc1` [compound 71], in experiment [1], the “Evaluation on NAMPT inhibitory” value is given as “○”. In experiment [2], the “Evaluation on protection” value is “A (A ≤ 0.01 µM)”. In addition, in experiment [3], the inhibition at 30 µM is over 50%.
For the compound `CC(C)C(=O)Nc1ccc(CNC(=O)c2cccnc2)cn1` [compound 72], the “Evaluation on NAMPT inhibitory” value in experiment [1] was “○”. The minimal effective concentration in experiment [2] was in the range of 0.01 to 0.1 µM. Also, the inhibition at 30 µM in experiment [3] was over 50%.
Regarding `N#Cc1ccc(C(=O)Nc2ccc(CNC(=O)c3cccnc3)cn2)cc1` [compound 73], in experiment [1], the “Evaluation on NAMPT inhibitory” value is “○”. In experiment [2], the minimal effective concentration was at most 0.01 µM. Also, the inhibition at 30 µM in experiment [3] was over 50%.
For the compound `O=C(/C=C/c1ccccc1)Nc1ccc(CNC(=O)c2cccnc2)cn1` [compound 74], in experiment [1], the “Evaluation on NAMPT inhibitory” value was “○”. For the same compound, the minimal effective concentration in experiment [2] lay within 0.01 to 0.1 µM. Also, in experiment [3], the inhibition at 30 µM was over 75%.
On to `O=C(/C=C/c1cccnc1)Nc1ccc(CNC(=O)c2cccnc2)cn1` [compound 75], for which the IC50 in experiment [1] is at least 100 nM. Also, the minimal effective concentration in experiment [2] was at most 0.01 µM. In addition, the inhibition at 30 µM in experiment [3] is over 75%.
For `Cc1ccc(C(=O)Nc2ccc(CNC(=O)/C=C/c3cccnc3)cn2)cc1` [compound 78], the “Evaluation on NAMPT inhibitory” value in experiment [1] is recorded as “○”. Moreover, the minimal effective concentration in experiment [2] is at most 0.01 µM. The inhibition at 30 µM in experiment [3] is over 75%.
With `C=Cc1ccc(C(=O)Nc2ccc(CNC(=O)c3cccnc3)cn2)cc1` [compound 80], the IC50 in experiment [1] was at least 100 nM. Also, in experiment [2], the minimal effective concentration was at most 0.01 µM. Further, the inhibition at 30 µM in experiment [3] was over 75%.
In the case of `O=C(NCc1ccc(NC(=O)c2ccccc2C(F)(F)F)nc1)c1cccnc1` [compound 81], the “Evaluation on NAMPT inhibitory” value in experiment [1] is “○”. The minimal effective concentration in experiment [2] was in the range of 0.01 to 0.1 µM. The inhibition at 30 µM in experiment [3] is over 50%.
Taken in the same sequence, the figures for `O=C(NCc1ccc(NC(=O)c2cccc(C(F)(F)F)c2)nc1)c1cccnc1` [compound 82] were “○”, at most 0.01 µM and over 75%.
